We go through two molecules from ChEMBL document CHEMBL2057108 (Bioorg Med Chem Lett, 2012).

A word on the inhibition: it is the change of the read-out against control, counted positive when it falls. Broadly, the EC50 is the concentration needed to bring the measured effect to its halfway point. Broadly, the bioavailability is the share of a dose that reaches the circulation, judged against a reference dose that is usually intravenous. Read a high bioavailability as good availability. One may read the half-life as how long it takes for the measured level to halve. High values mean slow decline, low ones rapid decline. As usually defined, the Ki is a dissociation constant, usually derived from enzyme kinetics or from competition with a known ligand. Lower therefore signals tighter binding. As a reminder, the Cmax is the maximum level reached in the sampled fluid or tissue. As a reminder, the ED50 is the midpoint of the dose-response relation. A lower ED50 goes with greater potency. For orientation: AUC(0-t) means the area under the concentration-time curve up to a stated or last time point. The low end stands for less exposure, the high end for more exposure.

Each structure is given as a SMILES string. The source made the active and inactive calls. The rule behind the calls is not given here. Where only a bound is given, the exact number is not on record here.

Series [1] has as its target T1, 5-hydroxytryptamine receptor 4 (Homo sapiens, UniProt Q13639). Put plainly: Intrinsic activity at human 5HT4C receptor expressed at 100 fold physiological-level in HEK293 cells assessed as cAMP accumulation relative to 5HT. It is filed as functional, cell-based.
A further series has as its system Liver microsomes. Put plainly: (§1) Half life in rat liver microsomes. In kind it is ADME, Microsome. The settings on record: microsomes. Background: Liver microsomes are a subcellular fraction often used to study metabolism.
A short description of series [2]: Permeability across human Caco2 cells. The settings on record: Caco-2, read-out: Kp. It is filed as ADME, cell-based. (In general: Caco-2 cells form a polarised layer with tight junctions and transporters.)
For series [3], the target named is T2, 5-hydroxytryptamine receptor 1A (Homo sapiens) (UniProt P08908).
T2 sequence (whole entry): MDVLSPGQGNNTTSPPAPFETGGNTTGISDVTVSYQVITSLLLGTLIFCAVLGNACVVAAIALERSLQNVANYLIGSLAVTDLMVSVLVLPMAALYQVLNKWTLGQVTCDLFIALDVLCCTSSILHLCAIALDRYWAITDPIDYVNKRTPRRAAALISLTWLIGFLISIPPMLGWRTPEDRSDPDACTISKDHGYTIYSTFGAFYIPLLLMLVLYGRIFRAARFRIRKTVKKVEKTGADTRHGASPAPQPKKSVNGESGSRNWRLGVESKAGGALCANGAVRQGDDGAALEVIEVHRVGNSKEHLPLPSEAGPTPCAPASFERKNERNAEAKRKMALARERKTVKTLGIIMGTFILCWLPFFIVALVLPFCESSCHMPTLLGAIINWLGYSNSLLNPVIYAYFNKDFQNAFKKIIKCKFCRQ
Put plainly: Inhibition of 5HT1A receptor at 10 uM.

In series [4] the target is T1, 5-hydroxytryptamine receptor 4. Nature of the series: 5-HT4C receptor-mediated exchange of GDP for europium labeled GTP (pEC50).
The target in series [5] is 5-hydroxytryptamine receptor 6 (Homo sapiens) (UniProt P50406). Put plainly: Inhibition of 5HT6 receptor at 10 uM.
Sequence of 5-hydroxytryptamine receptor 6 (Homo sapiens) (P50406 whole entry): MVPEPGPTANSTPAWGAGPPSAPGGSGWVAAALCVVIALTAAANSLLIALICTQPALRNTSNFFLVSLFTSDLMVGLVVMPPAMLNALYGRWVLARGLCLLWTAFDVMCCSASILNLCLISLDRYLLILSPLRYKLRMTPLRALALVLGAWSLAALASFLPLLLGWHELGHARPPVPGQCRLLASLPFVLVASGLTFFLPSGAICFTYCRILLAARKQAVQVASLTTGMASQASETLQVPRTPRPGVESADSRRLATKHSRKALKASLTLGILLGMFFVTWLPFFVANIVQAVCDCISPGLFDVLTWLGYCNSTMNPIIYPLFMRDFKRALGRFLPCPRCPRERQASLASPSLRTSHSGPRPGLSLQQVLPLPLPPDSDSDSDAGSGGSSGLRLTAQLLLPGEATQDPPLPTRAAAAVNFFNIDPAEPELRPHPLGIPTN
Series [6] concerns the target T1, 5-hydroxytryptamine receptor 4. Put plainly: 5-HT4C receptor-mediated exchange of GDP for europium labeled GTP (intrinsic activity).
For another series, the species on record is Homo sapiens. Nature of the series: Selectivity ratio of Ki for human 5HT3A receptor to Ki for human 5HT4C receptor.
Series [7] deals with 5-hydroxytryptamine receptor 7 (Homo sapiens) (UniProt P34969). Put plainly: Inhibition of 5HT7 receptor at 10 uM.
Sequence of 5-hydroxytryptamine receptor 7 (Homo sapiens) (P34969 whole entry): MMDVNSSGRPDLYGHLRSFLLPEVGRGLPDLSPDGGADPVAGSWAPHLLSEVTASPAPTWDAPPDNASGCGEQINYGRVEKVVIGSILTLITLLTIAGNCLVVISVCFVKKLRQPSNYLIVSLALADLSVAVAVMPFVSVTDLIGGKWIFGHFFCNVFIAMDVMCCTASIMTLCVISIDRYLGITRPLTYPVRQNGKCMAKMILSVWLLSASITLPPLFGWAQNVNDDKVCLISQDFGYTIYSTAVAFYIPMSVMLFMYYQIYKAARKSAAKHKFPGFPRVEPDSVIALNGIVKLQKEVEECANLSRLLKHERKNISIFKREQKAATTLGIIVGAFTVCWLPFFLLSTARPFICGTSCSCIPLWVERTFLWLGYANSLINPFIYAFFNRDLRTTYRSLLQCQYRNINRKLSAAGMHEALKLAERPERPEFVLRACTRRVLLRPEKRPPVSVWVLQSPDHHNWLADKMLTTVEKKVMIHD
The target in series [8] is T1, 5-hydroxytryptamine receptor 4. Nature of the series: Agonist activity at human 5HT4C receptor expressed in a cell line expressing receptor at 10 fold physiological-level assessed as cAMP accumulation. It is filed as functional. (In general: Changes in cAMP serve as a functional read-out for many G protein-coupled receptors.)
The nature of series [9]: Oral bioavailability in Sprague-Dawley rat at 5 mg/kg. It is filed as ADME, organism-based. The settings on record: in vivo.
Series [10] can be described thus: Half life in Sprague-Dawley rat at 5 mg/kg, po. In kind it is ADME, organism-based. On the set-up: dose 5 mg/kg, route oral. The settings on record: in vivo.
Series [11] deals with 5-hydroxytryptamine receptor 2B (Homo sapiens) (UniProt P41595). Nature of the series: Inhibition of 5HT2B receptor at 10 uM.
Sequence of 5-hydroxytryptamine receptor 2B (Homo sapiens) (P41595 whole entry): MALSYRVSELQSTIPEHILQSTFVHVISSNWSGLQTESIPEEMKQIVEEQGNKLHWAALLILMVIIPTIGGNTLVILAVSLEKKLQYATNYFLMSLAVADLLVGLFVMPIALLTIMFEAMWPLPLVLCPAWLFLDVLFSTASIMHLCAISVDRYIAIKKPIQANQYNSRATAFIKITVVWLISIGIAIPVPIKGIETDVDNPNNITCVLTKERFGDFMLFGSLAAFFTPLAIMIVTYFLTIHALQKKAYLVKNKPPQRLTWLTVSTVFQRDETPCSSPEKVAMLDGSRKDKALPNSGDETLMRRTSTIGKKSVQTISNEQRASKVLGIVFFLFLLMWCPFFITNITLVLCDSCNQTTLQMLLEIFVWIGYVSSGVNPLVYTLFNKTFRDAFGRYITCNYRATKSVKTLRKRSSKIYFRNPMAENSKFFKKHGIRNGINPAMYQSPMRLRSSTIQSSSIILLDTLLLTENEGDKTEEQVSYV
In series [12] the target is 5-hydroxytryptamine receptor 2A (Homo sapiens) (UniProt P28223). Put plainly: Inhibition of 5HT2A receptor at 10 uM.
Sequence of 5-hydroxytryptamine receptor 2A (Homo sapiens) (P28223 whole entry): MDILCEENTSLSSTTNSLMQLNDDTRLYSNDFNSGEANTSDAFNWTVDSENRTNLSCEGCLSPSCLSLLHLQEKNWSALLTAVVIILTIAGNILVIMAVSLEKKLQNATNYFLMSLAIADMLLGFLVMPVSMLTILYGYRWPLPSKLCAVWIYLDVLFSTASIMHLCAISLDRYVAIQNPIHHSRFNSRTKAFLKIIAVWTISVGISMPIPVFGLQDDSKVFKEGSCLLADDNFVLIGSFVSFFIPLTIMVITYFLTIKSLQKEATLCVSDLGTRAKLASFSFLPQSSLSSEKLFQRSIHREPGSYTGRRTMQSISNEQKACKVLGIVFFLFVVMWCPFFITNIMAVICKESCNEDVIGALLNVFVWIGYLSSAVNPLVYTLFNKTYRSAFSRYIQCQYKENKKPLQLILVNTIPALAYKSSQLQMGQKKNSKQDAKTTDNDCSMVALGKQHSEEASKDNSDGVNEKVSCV
The target of series [13] is T1, 5-hydroxytryptamine receptor 4. Put plainly: biochemical.
Description: Displacement of [3H]GR113808 from human recombinant 5HT4C receptor expressed in HEK293 cells
A short description of series [14]: Cmax in Sprague-Dawley rat at 5 mg/kg, po. In kind it is ADME, organism-based. Also on record: dose 5 mg/kg, route oral. The settings on record: in vivo.
Series [15] relates to Rattus norvegicus. Put plainly: 5-HT4 receptor-mediated esophageal relaxation in anesthetized rat (following i.v. administration) using digital sonomicrometry. It is filed as functional. The settings on record: Sprague-Dawley.
For series [16], the system named is Rattus norvegicus. Nature of the series: 5-HT4 receptor-mediated esophageal relaxation in anesthetized rat (following intraduodenal administration) using digital sonomicrometry. It is filed as functional, organism-based. The settings on record: Sprague-Dawley.
Series [17] has as its target 5-hydroxytryptamine receptor 4 (Cavia porcellus, UniProt O70528). Put plainly: Agonist activity at 5HT4 receptor in guinea pig colon assessed as longitudinal muscle plexus contraction.
Series [18] can be described thus: as §1. It is filed as ADME, Microsome. The note with it: liver microsomes.
The test system of the next series is Cavia porcellus. Put plainly: Agonist activity at 5HT4 receptor in sc dosed guinea pig assessed as decrease in colonic transit time of carmine red dye after 60 mins relative to vehicle treated control. It is filed as functional, organism-based.
Series [19] addresses 5-hydroxytryptamine receptor 1B (Homo sapiens) (UniProt P28222). Put plainly: Inhibition of 5HT1B receptor at 10 uM.
The target in series [20] is 5-hydroxytryptamine receptor 5A (Homo sapiens) (UniProt P47898). Nature of the series: Inhibition of 5HT5A receptor at 10 uM.
Sequence of 5-hydroxytryptamine receptor 5A (Homo sapiens) (P47898 whole entry): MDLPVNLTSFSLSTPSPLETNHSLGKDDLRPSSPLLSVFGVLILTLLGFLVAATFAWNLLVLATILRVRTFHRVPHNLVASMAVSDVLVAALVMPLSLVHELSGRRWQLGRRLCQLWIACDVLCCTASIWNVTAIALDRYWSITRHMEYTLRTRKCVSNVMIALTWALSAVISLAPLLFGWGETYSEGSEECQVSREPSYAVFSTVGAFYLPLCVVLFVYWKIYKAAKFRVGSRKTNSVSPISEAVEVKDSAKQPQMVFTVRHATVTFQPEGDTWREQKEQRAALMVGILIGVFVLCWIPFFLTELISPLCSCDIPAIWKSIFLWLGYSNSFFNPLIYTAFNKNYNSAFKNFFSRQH
Series [21] deals with T1, 5-hydroxytryptamine receptor 4. Nature of the series: Agonist activity at human 5HT4C receptor expressed at 100 fold physiological-level in HEK293 cells assessed as cAMP accumulation. It is filed as functional, cell-based.
The target in series [22] is T3, 5-hydroxytryptamine receptor 3A (Homo sapiens) (UniProt P46098).
T3 sequence (whole entry): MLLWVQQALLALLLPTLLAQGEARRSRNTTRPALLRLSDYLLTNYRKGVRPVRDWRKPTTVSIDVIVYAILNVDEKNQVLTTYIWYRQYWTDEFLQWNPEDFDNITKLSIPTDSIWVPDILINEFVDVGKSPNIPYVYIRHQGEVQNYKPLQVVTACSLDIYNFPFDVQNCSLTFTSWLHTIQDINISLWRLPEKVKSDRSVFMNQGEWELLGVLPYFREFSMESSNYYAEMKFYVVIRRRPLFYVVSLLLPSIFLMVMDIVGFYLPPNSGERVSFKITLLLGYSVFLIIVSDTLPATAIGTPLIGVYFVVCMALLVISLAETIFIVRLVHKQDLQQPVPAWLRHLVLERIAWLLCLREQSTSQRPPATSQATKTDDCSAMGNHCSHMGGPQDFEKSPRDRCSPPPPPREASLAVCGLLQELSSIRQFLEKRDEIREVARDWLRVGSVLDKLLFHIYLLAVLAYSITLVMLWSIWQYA
Put plainly: Inhibition of 5HT3A receptor at 10 uM.

In series [23] the target is T4, 5-hydroxytryptamine receptor 2C (Homo sapiens) (UniProt P28335).
T4 sequence (whole entry): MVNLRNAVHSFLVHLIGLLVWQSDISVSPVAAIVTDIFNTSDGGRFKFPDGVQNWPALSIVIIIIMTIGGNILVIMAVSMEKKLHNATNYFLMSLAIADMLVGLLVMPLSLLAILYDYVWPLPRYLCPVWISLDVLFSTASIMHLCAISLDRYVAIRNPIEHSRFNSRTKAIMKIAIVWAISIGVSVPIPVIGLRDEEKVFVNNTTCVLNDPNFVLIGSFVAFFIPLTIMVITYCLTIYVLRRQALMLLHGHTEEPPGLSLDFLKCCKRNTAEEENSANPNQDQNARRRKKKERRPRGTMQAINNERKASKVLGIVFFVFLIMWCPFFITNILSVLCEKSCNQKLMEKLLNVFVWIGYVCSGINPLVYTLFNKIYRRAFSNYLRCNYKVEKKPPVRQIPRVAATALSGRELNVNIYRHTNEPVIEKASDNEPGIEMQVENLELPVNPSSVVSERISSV
Put plainly: Inhibition of 5HT2C receptor at 10 uM.

The target of another series is hERG (KCNH2) (Homo sapiens, UniProt Q12809). Put plainly: Inhibition of human ERG expressed in CHO cells at 3 uM. It is filed as cell-based. The note with it: CHO cells expressing human ERG.
Sequence of hERG (KCNH2) (Q12809 whole entry): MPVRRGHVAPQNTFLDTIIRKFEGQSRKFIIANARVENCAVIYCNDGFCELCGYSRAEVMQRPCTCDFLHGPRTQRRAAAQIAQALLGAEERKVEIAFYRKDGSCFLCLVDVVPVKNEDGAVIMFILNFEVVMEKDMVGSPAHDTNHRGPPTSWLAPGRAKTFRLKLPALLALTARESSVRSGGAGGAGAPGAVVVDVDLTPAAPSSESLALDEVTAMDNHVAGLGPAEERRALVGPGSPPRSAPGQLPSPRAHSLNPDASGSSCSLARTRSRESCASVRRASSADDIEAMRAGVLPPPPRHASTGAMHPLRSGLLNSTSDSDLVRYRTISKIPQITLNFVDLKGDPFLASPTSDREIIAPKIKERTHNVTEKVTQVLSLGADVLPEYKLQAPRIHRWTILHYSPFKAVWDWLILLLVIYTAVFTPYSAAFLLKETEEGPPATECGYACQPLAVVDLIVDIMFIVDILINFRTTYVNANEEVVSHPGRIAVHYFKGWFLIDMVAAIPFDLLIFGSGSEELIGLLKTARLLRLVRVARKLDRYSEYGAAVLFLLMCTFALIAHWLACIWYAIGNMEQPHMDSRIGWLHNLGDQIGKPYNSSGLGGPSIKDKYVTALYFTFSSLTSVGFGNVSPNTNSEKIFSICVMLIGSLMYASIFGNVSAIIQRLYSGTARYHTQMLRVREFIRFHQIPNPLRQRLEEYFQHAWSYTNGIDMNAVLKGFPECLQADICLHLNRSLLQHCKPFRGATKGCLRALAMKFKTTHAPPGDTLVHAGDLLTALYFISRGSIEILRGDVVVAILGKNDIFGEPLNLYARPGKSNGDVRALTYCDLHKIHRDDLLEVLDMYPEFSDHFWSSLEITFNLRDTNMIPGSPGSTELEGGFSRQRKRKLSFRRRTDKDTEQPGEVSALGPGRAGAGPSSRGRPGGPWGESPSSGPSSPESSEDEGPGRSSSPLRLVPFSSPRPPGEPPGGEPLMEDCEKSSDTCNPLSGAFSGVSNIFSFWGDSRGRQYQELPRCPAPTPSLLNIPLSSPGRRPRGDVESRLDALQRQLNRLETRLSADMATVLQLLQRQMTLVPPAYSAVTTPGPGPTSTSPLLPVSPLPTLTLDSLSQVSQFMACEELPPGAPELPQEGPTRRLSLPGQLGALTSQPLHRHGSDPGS
Series [24] can be described thus: AUC (0 to t) in Sprague-Dawley rat at 5 mg/kg, po. In kind it is ADME, organism-based. Also on record: dose 5 mg/kg, route oral. The note with it: plasma.
Series [25] has as its target T1, 5-hydroxytryptamine receptor 4. Nature of the series: Intrinsic activity at human 5HT4C receptor expressed in a cell line expressing receptor at 10 fold physiological-level assessed as cAMP accumulation relative to 5HT. It is filed as functional.
For series [26], the target named is 5-hydroxytryptamine receptor 1D (Homo sapiens) (UniProt P28221). Put plainly: Inhibition of 5HT1D receptor at 10 uM.
Sequence of 5-hydroxytryptamine receptor 1D (Homo sapiens) (P28221 whole entry): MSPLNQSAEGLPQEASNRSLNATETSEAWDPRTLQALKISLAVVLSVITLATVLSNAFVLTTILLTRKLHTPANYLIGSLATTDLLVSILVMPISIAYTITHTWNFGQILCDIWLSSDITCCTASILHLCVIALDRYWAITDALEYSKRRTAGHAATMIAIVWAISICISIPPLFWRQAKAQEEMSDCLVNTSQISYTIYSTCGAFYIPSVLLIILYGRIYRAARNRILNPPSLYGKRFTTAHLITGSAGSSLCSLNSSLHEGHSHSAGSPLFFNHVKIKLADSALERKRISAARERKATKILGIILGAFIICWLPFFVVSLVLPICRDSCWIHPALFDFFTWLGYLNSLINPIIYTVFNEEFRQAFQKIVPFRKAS

T1 sequence (Q13639 whole entry): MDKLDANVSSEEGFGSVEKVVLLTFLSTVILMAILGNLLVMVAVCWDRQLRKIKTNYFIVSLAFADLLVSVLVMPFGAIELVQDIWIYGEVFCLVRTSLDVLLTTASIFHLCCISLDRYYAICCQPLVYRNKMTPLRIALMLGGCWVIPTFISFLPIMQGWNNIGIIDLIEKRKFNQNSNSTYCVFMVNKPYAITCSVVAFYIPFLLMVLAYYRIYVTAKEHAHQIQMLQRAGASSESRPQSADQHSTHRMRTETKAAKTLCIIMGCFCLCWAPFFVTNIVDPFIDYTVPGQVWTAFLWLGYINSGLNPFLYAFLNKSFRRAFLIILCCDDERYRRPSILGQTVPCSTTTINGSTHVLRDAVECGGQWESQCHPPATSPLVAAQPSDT
Sequence of 5-hydroxytryptamine receptor 4 (Cavia porcellus, UniProt O70528) (O70528 whole entry): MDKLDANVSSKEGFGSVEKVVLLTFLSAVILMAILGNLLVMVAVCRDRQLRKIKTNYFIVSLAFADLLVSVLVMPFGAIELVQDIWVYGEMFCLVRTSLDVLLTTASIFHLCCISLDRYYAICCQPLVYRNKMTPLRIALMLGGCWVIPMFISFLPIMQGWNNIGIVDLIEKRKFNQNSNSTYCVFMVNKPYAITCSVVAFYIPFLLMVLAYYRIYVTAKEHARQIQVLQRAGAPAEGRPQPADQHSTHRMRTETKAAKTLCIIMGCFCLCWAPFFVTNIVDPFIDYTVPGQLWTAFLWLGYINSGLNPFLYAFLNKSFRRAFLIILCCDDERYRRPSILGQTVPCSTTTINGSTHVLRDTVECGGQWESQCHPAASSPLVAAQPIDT
Sequence of 5-hydroxytryptamine receptor 1B (Homo sapiens) (P28222 whole entry): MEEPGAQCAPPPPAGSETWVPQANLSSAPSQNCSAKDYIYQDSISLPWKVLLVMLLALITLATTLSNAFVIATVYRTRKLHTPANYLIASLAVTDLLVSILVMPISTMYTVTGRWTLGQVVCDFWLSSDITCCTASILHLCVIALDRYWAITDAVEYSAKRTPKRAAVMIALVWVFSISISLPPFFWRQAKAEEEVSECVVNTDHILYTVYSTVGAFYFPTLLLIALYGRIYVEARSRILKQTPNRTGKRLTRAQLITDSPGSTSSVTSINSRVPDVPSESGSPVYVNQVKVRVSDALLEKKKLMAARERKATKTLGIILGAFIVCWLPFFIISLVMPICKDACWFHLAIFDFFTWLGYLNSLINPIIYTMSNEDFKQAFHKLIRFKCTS

`COc1cc(N)c(Cl)cc1C(=O)N[C@H]1CCN(CCCOc2ccc(F)cc2)C[C@H]1OC` (relative stereo) [REL-CISAPRIDE]: the Intrinsic activity in series [1] was found to be 117%. The t1/2 with Liver microsomes was determined as 0.783 h.

Consider `CC(=O)N1CCN(CCN2[C@@H]3CC[C@H]2C[C@@H](NC(=O)c2nn(C(C)C)c4ccccc24)C3)CC1`, for which the Papp in series [2] turned out to be 310 nm/s. Also, the inhibition in [3], in [5], in [7], in series [11], in series [12] and in series [19] was less than 50% throughout. In addition, the inhibition in series [20], in series [22], in series [23] and in series [26] was less than 50% throughout. Further, the EC50 in series [4] is 0.00631 µM; in [8], 0.01 µM; in [17] it was 0.01 µM; in series [21], 0.00251 µM. The Intrinsic activity is 57% in [6], 83% in series [1] and 53% in series [25]. Also, the Ratio Ki in the series listed under Homo sapiens came to 980. In series [9], this molecule returned a bioavailability of more than 100%. For the same molecule, the half-life in series [10] is 3.2 h; in series [18], more than 1.5 h. In series [13], this molecule showed a Ki of 0.01 µM. This molecule had a Cmax in [14] of 0.254 µg/mL. For the same molecule, the Activity entry in the series on Rattus norvegicus [15] and in the series on Rattus norvegicus [16] was “Dose-dependent effect” in each case. This molecule yielded an ED50 in the series on Rattus norvegicus [15] (iv) of 0.0378 mg/kg. For the same molecule, in the series with Cavia porcellus, the result was Active. This molecule also displayed an inhibition at 3 µM against hERG (KCNH2) of 9%. Further, in series [24], the AUC(0-t) turned out to be 0.73 µg·h/mL.
